Assay results reported in patent US20240156093A1 (priority 2021, published 2024).
In brackets after ≈: the same amount, converted by molar mass.

Key:
physchem [1] = conditions: 25 °C, water
physchem [2] = experiment: physchem
[3] = test system: influenza virus (enveloped virus); assay type: cell-based
[4] = test system: feline calicivirus (non-enveloped virus); assay type: cell-based

Row | Structure (SMILES) | solubility (physchem [1]) [µg/mL] | pKa (physchem [2]) | further results
1 | Nc1ccc(C(=O)O)cc1 [4-aminobenzoic acid] | 6000 (≈ 43.8 mM) |  | 
2 | O=C(O)CCCCC(=O)O [Adipic acid, adipic acid] |  | 4.34 | 
3 | CCCCCCCCCCCCc1ccc(S(=O)(=O)[O-])cc1.[Na+] [Comparative example 2, sodium dodecylbenzene sulfonate] |  |  | Influenza virus: Antiviral activity value [3]: 2.0; Influenza virus: Virus infectivity titer common logarithmic value [3]: 4.5 PFU/cm^2; Feline calicivirus: Antiviral activity value [4]: 0.3; Feline calicivirus: Virus infectivity titer common logarithmic value [4]: 6.2 PFU/cm^2
4 | O=C(O)CCCCC(=O)O [Comparative example 3, adipic acid] |  |  | Influenza virus: Antiviral activity value [3]: 1.7; Feline calicivirus: Antiviral activity value [4]: 0.5; Feline calicivirus: Virus infectivity titer common logarithmic value [4]: 6 PFU/cm^2
5 | O=C(O)/C=C/C(=O)O [Fumaric acid, fumaric acid] | 6300 (≈ 54.3 mM) | 3.02 | 
6 | CCCCCCCCCCCC(=O)O [Lauric acid, lauric acid] | 4.8 (≈ 0.024 mM) | 4.92 | 
7 | CCCCCCCC/C=C\CCCCCCCC(=O)O [Oleic acid, oleic acid] |  | 5.35 | 
8 | O=C(O)c1ccccc1C(=O)O [Phthalic acid, phthalic acid] | 7200 (≈ 43.3 mM) | 2.94 | 
9 | O=C(O)c1ccccc1O [Salicylic acid, salicylic acid] | 2000 (≈ 14.5 mM) |  | 
10 | CCCCCC(=O)O [caproic acid] | 11000 (≈ 94.7 mM) |  | 
11 | CCCCCCC(=O)O [enanthic acid] | 2400 (≈ 18.4 mM) |  | 
12 | O=C(O)c1cccc(C(=O)O)c1 [isophthalic acid] | 130 (≈ 0.783 mM) |  | 
13 | CCCCCCCCC(=O)O [pelargonic acid] | 280 (≈ 1.77 mM) |  | 
14 | O=C(O)c1ccc(C(=O)O)cc1 [terephthalic acid] | 17 (≈ 0.102 mM) |  | 
